Assay results published in patent US20130165450A1, “Novel Thiazol-Carboximide Derivatives as PDK1 Inhibitors” (priority 2010, published 2013).
pIC50: −log10 of the molar value.

Biological target: T1, recombinant human PDK1 (amino acids 51-556) (Homo sapiens, UniProt O15530)
T1 construct: containing amino acids 51-556 of the human PDK1 enzyme; made in house
T1 sequence (O15530 51-556): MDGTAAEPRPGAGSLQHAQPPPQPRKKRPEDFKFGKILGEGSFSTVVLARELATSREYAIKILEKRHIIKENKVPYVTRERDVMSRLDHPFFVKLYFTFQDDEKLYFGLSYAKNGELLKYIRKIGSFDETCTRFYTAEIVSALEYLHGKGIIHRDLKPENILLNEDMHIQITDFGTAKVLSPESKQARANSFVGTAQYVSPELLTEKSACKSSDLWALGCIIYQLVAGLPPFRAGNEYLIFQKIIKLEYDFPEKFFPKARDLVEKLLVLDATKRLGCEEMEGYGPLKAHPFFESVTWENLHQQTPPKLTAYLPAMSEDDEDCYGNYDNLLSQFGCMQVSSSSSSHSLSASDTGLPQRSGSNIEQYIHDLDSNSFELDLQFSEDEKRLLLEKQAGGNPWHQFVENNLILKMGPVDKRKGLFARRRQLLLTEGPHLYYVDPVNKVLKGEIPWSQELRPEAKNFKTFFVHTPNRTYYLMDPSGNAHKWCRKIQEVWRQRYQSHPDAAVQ
Assay: PDK1 IMAP fluorescence polarization kinase assay
Type: biochemical
Details: 10 nM PDK1, 100 nM peptide substrate, 100 nM PIFtide, 2.5 uM ATP, 1.5 hours; rated A-D

Structure (SMILES)	pIC50
N[C@@H]1CCCN(c2c(F)cccc2NC(=O)c2csc(-c3cnn(Cc4cccnc4)c3)n2)C1 [Compound 31, N-[2-(3(R)-amino-1-piperidinyl)-3-fluorophenyl]-2-[1-(3-pyridinylmethyl)-1H-pyrazol-4-yl]-4-thiazolecarboxamide]	6.60 to 7.29
N[C@@H]1CCCN(c2c(F)cccc2NC(=O)c2csc(-c3cnn(Cc4c(F)cccc4F)c3)n2)C1 [Compound 32, N-[2-(3(R)-amino-1-piperidinyl)-3-fluorophenyl]-2-[1-[(2,6-difluorophenyl)methyl]-1H-pyrazol-4-yl]-4-thiazolecarboxamide]	6.60 to 7.29
N[C@@H]1CCCN(c2c(F)cccc2NC(=O)c2csc(-c3cnn(Cc4ccccc4OC(F)(F)F)c3)n2)C1 [Compound 33, N-[2-(3(R)-amino-1-piperidinyl)-3-fluorophenyl]-2-[1-[[2-(trifluoromethoxy)phenyl]methyl]-1H-pyrazol-4-yl]-4-thiazolecarboxamide]	< 6.00
Nc1ccc(N2CCC3(CC2)OCCO3)c(NC(=O)c2csc(-c3cnn(Cc4cccs4)c3)n2)c1 [Compound 34, N-[5-amino-2-(1,4-dioxa-8-azaspiro[4.5]dec-8-yl)phenyl]-2-[1-(2-thienylmethyl)-1H-pyrazol-4-yl]-4-thiazolecarboxamide]	6.60 to 7.29
N[C@@H]1CCCN(c2c(F)cccc2NC(=O)c2csc(-c3cnn(Cc4c(F)cccc4C(F)(F)F)c3)n2)C1 [Compound 35, N-[2-(3(R)-amino-1-piperidinyl)-3-fluorophenyl]-2-[1-[[2-fluoro-6-(trifluoromethyl)phenyl]methyl]-1H-pyrazol-4-yl]-4-thiazolecarboxamide]	< 6.00
N[C@@H]1CCCN(c2c(F)cccc2NC(=O)c2csc(-c3cnn(Cc4ccccc4OC(F)F)c3)n2)C1 [Compound 36, N-[2-(3(R)-amino-1-piperidinyl)-3-fluorophenyl]-2-[1-[[2-(difluoromethoxy)phenyl]methyl]-1H-pyrazol-4-yl]-4-thiazolecarboxamide]	6.00 to 6.60
N[C@@H]1CCCN(c2c(F)cccc2NC(=O)c2csc(-c3cnn(Cc4ccccc4SC(F)(F)F)c3)n2)C1 [Compound 37, N-[2-(3(R)-amino-1-piperidinyl)-3-fluorophenyl]-2-[1-[[2-[(trifluoromethyl)thio]phenyl]methyl]-1H-pyrazol-4-yl]-4-thiazolecarboxamide]	< 6.00
N[C@@H]1CCCN(c2c(F)cccc2NC(=O)c2csc(-c3cnn(Cc4c(F)cc(F)cc4F)c3)n2)C1 [Compound 38, N-[2-(3(R)-amino-1-piperidinyl)-3-fluorophenyl]-2-[1-[(2,4,6-trifluorophenyl)methyl]-1H-pyrazol-4-yl]-4-thiazolecarboxamide]	6.00 to 6.60
O=C(Nc1ccccc1N1CCNCC1)c1csc(-c2cnn(Cc3cc(F)ccc3F)c2)n1 [Compound 39, 2-[1-[(2,5-difluorophenyl)methyl]-1H-pyrazol-4-yl]-N-[2-(1-piperazinyl)phenyl]-4-thiazolecarboxamide]	6.00 to 6.60
N[C@@H]1CCCN(c2c(F)cccc2NC(=O)c2csc(-c3cnn(CCOCc4ccccc4)c3)n2)C1 [Compound 40, N-[2-(3(R)-amino-1-piperidinyl)-3-fluorophenyl]-2-[1-[2-(phenylmethoxy)ethyl]-1H-pyrazol-4-yl]-4-thiazolecarboxamide]	6.00 to 6.60
N[C@@H]1CCCN(c2c(F)cccc2NC(=O)c2csc(-c3cnn(Cc4ccccc4CO)c3)n2)C1 [Compound 42, N-[2-(3(R)-amino-1-piperidinyl)-3-fluorophenyl]-2-[1-[[2-(hydroxymethyl)phenyl]methyl]-1H-pyrazol-4-yl]-4-thiazolecarboxamide]	6.60 to 7.29
N[C@@H]1CCCN(c2c(F)cccc2NC(=O)c2csc(-c3cnn(CCCOc4ccccc4)c3)n2)C1 [Compound 43, N-[2-(3(R)-amino-1-piperidinyl)-3-fluorophenyl]-2-[1-(3-phenoxypropyl)-1H-pyrazol-4-yl]-4-thiazolecarboxamide]	< 6.00
COC(=O)c1cccc(F)c1Cn1cc(-c2nc(C(=O)Nc3cccc(F)c3N3CCC[C@@H](N)C3)cs2)cn1 [Compound 45, methyl 2-[[4-[4-[[[2-(3(R)-amino-1-piperidinyl)-3-fluorophenyl]amino]carbonyl]-2-thiazolyl]-1H-pyrazol-1-yl]methyl]-3-fluorobenzoate]	6.00 to 6.60
N[C@@H]1CCCN(c2c(F)cccc2NC(=O)c2csc(-c3cnn(Cc4c(F)cccc4CO)c3)n2)C1 [Compound 46, N-[2-(3(R)-amino-1-piperidinyl)-3-fluorophenyl]-2-[1-[[2-fluoro-6-(hydroxymethyl)phenyl]methyl]-1H-pyrazol-4-yl]-4-thiazolecarboxamide]	6.60 to 7.29
N[C@@H]1CCCN(c2c(F)cccc2NC(=O)c2csc(-c3cnn(CC4CCNCC4)c3)n2)C1 [Compound 47, N-[2-(3(R)-amino-1-piperidinyl)-3-fluorophenyl]-2-[1-(4-piperidinylmethyl)-1H-pyrazol-4-yl]-4-thiazolecarboxamide]	< 6.00
N[C@@H]1CCCN(c2c(F)cccc2NC(=O)c2csc(-c3cnn(Cc4ccccc4Br)c3)n2)C1 [Compound 49, N-[2-(3(R)-amino-1-piperidinyl)-3-fluorophenyl]-2-[1-[(2-bromophenyl)methyl]-1H-pyrazol-4-yl]-4-thiazolecarboxamide]	6.00 to 6.60
N[C@@H]1CCCN(c2c(F)cccc2NC(=O)c2csc(-c3cnn(Cc4ccccc4-c4cn[nH]c4)c3)n2)C1 [Compound 50, N-[2-(3(R)-amino-1-piperidinyl)-3-fluorophenyl]-2-[1-[[2-(1h-pyrazol-4-yl)phenyl]methyl]-1H-pyrazol-4-yl]-4-thiazolecarboxamide]	< 6.00
NCc1ccccc1Cn1cc(-c2nc(C(=O)Nc3cccc(F)c3N3CCC[C@@H](N)C3)cs2)cn1 [Compound 51, 2-[1-[[2-(aminomethyl)phenyl]methyl]-1H-pyrazol-4-yl]-N-[2-(3(R)-amino-1-piperidinyl)-3-fluorophenyl]-4-thiazolecarboxamide]	6.00 to 6.60
N[C@@H]1CCCN(c2c(F)cccc2NC(=O)c2csc(-c3cnn(Cc4cccc(F)c4F)c3)n2)C1 [Compound 52, N-[2-(3(R)-amino-1-piperidinyl)-3-fluorophenyl]-2-[1-[(2,3-difluorophenyl)methyl]-1H-pyrazol-4-yl]-4-thiazolecarboxamide]	6.60 to 7.29
